pIC50: −log10 of the molar value. Calls of active or inactive are those of the source. No cut-off for these calls is given here.
What was measured:
[1] = Anticancer activity against 1 x 10^5 cells mouse NSF202 cells assessed as decrease in viable cells at 1 ug/ml measured after 2 days by trypan blue exclusion method; format: functional
Mus musculus [2] = organism: Mus musculus; assay: Anticancer activity against 1 x 10^5 cells mouse NSF202 cells assessed as cell growth inhibition at 1.02 uM measured after 2 days by trypan blue exclusion method; format: functional, cell-based
Mus musculus [3] = organism: Mus musculus; assay: Anticancer activity against 2 x 10^5 cells mouse NSF202 cells assessed as cell growth inhibition at 1.02 uM measured after 2 days by trypan blue exclusion method; format: functional, cell-based
SNU-638 = assay: Antiproliferative activity against human SNU638 cells; format: functional, cell-based
[4] = Antiproliferative activity against human leukemia cells; format: functional, cell-based; conditions: Leukemia cell
[5] = Antiproliferative activity against human lung cancer cells; format: functional, cell-based; conditions: Cancer cell lines
MCF7 = assay: Antiproliferative activity against human MCF7 cells; format: functional, cell-based

pIC50 (SNU-638)	pIC50 (MCF7)	Structure (SMILES)	Activity [1] [%]	inhibition (Mus musculus [2])	inhibition (Mus musculus [3])	pIC50 [4]	pIC50 [5]
–	–	O=C1C(c2c[nH]c3ccccc23)=Nc2ccccc21 [INDOXYL RED]	40	Active	Active	–	–
5.92	5.85	O=Nc1c(-c2c(O)[nH]c3ccc([N+](=O)[O-])cc23)[nH]c2ccccc12	–	–	–	5.04	5.27

Source: ChEMBL document CHEMBL2311338, “On the preparation of indoxyl red from indican and some new characteristics” (Bioorg Med Chem Lett, 2013)
